pIC50: −log10 of the molar value.
How the values were obtained:
HL-60 [1] = assay: Compound was evaluated for the competitive inhibition of the MRP1/GS-X pump mediated transport of LTC4 in the cisplatin-resistant human leukemia HL-60 (HL-60/R-CP) cells; type: functional, cell-based
HL-60 [2] = assay: Inhibitory activity against MRP1/GS-X pump mediated transport of delta7-PGA1 methyl ester glutathione conjugate in the cisplatin-resistant human leukemia HL-60 (HL-60/R-CP) cells; type: functional, cell-based

pIC50 (HL-60 [1]): 6.40
pIC50 (HL-60 [2]): 6.28
SMILES: N[C@@H](CCC(=O)N[C@@H](CSCCCCCc1ccc(C(=O)c2ccccc2)cc1)C(=O)NCC(=O)O)C(=O)O

Reference: ChEMBL document CHEMBL1132510, “[35S]S-[5-(4-benzoylphenyl)pentyl]glutathione: a versatile radioligand targeting GS-X pumps with the ability of photoaffinity labeling” (Bioorg Med Chem Lett, 1999)
